The source of these data is patent US20250171404A1, “PCNA INHIBITORS AND USES THEREOF” (CITY OF HOPE, priority 2022, published 2025).

The nature of data set [1]: Compound metabolism in liver microsome. Type of data set: in vitro ADME, human. Particulars: compared with AOH1160. Here is the method: FIGS. 12A-12E. AOH1996 metabolism and in vivo pharmacokinetics. FIG. 12A: Illustration of AOH1160 degradation by carboxyl esterase-mediated cleavage or by hydroxylation. FIG. 12B: Chromatogram of liver microsome reaction mixtures of AOH1160 and AOH1996. The metabolites shown in FIG. 12A are indicated above their corresponding peaks. FIG. 12C: An aliquot of the liver microsome reaction mixture of AOH1996 was taken after various incubation times in the presence or absence of NADPH as the energy source. AOH1996 concentrations, determined by LC/MS-MS, as a percentage of the input concentration were graphed. FIG. 12D: After oral administration, the plasma concentrations of AOH1996 from three male and three female ES1e/SCID mice at the indicated time points were averaged and graphed ±S.D. The inset contains PK parameters determined by a standard noncompartmental method. FIG. 12E: A similar PK study of AOH1996 was performed in dogs.
Measurement of compound metabolism in liver microsome. AOH1160 analogs were incubated in human liver microsomes in the presence or absence of NADPH at 37° C. An aliquot of the reaction mixture was taken after various incubation times. Compound concentration was determined by liquid chromatography-tandem mass spectrometry (LC-MS/MS) as previously described (Gu et al., 2018).

For data set [2], the system named is MDA-MB-468 xenograft tumors. The data set is described as follows: Xenograft tumor model, breast cancer. Type of data set: in vivo, mice. The note with it: 40 mg/kg twice daily, oral, vs vehicle. Here is the method: FIGS. 4A-4H. Pharmacokinetics and anti-tumor growth activity of AOH1996 in vivo. FIG. 4A: After oral administration, the plasma concentrations of AOH1996 from three male and three female ES1^e/SCID mice at the indicated time points were averaged and graphed ±S.D. The inset contains PK parameters determined by a standard noncompartmental method. FIG. 4B: A similar PK study of AOH1996 was performed in dogs. FIGS. 4C-4E: Mice bearing the xenograft tumors of neuroblastoma (FIG. 4C: SK-N-BE(2)c), breast cancer (FIG. 4D: MDA-MB-468), and small-cell lung cancer (FIG. 4E: H82) were given vehicle only (black) or 40 mg/kg of AOH1996 (grey) twice daily immediately after the first measurement. Tumor sizes were measured by a dial caliper each week. Tumor volumes (0.4×L×W^2) were averaged and graphed ±S.E. (*, P<0.01). FIG. 4F: Animal body weight was monitored throughout the studies as an indicator of toxicity. […] FIG. 4G: The levels of phosphor-Chk1 (pChk1) and γH2A.X in SK-N-BE(2)c derived tumor samples were analyzed by IHC. […] The p values determined by the Log-rank (Mantel-Cox) test between combination treatment and each of the control groups are p=0.0003 (Combination vs. NoRx), p=0.005 (Combination vs. AOH1996 alone), and p=0.024 (Combination vs. CPT-11 alone).
In vivo tumor model. […] Tumor size and animal weight were measured weekly. […]

As to `COc1cccc(Oc2ccccc2NC(=O)CNC(=O)c2cccc3ccccc23)c1` [AOH1996, N-(2-((2-(3-methoxyphenoxy)phenyl)amino)-2-oxoethyl)-1-naphthamide], in data set [1], the metabolic stability result was “metabolically more stable than AOH1160”. Also, in data set [2], the tumor burden result was “significantly reduced tumor burden”.
